Test results from patent US9486402B2, “Compositions containing berberine or analogs thereof for treating rosacea or red face related skin disorders” (Derman Biomedicine Co. Ltd, priority 2009, dated 2016).

Assays:
[1] = test system: IL-8 release from human keratinocytes; experiment: Cathelicidin peptide (LL-37)-induced IL-8 release from human keratinocytes, ELISA; type: cell-based
Description: (§1) For our in vitro study, berberine (Sigma, St. Louis, Mo., USA) was dissolved in water, methanol, ethanol or dimethyl sulfoxide (DMSO). Normal human keratinocytes (Invitrogen, CA, USA) were grown in EpiLife medium (Invitrogen, CA, USA) supplemented with 0.06 mM Ca^+2, 1% EpiLife defined growth supplement, and 1% penicillin/streptomycin (Invitrogen, CA, USA). Cells were grown at 37° C. in a humidified atmosphere of 5% CO2 and 95% air. The human keratinocytes were cultured to confluence and treated with synthetic cathelicidin peptides (LL-37) (6.4 μM) for 16 h to induce inflammatory response similar to that observed in rosacea. Some of the cathelicidin-treated keratinocyte cultures were co-incubated with berberine of concentrations from 1.25 μg/ml to 12.5 μg/ml. The keratinocytes cultures treated with cathrlicidin or cathrlicidin with 1% ethanol and without berberine were used as negative controls. Supernatants were collected and placed in a sterile 96-well plate for ELISA of interleukin-8 (IL-8), interleukin-1 alpha (IL-1 alpha), and […] (VEGF) in accordance with the manufacturer's instructions (R&D Systems, MN, USA). […]
(§2) FIG. 1. […] Keratinocytes were stimulated by cathelicidin peptide (LL-37), and the release of IL-8 (FIG. 1A), IL-1 alpha (FIG. 1B) and VEGF (FIG. 1C) by the keratinocytes was evaluated by ELISA assay.

[2] = test system: IL-1 alpha release from human keratinocytes; experiment: Cathelicidin peptide (LL-37)-induced IL-1 alpha release from human keratinocytes, ELISA; type: cell-based; conditions: 1.25 μg/ml berberine; LL-37 6.4 μM, 16 h; vs cathelicidin peptide with 1% ethanol control; P<0.05
Description: as §1, §2

[3] = test system: VEGF release from human keratinocytes; experiment: Cathelicidin peptide (LL-37)-induced VEGF release from human keratinocytes, ELISA; type: cell-based; conditions: 1.25 μg/ml berberine; LL-37 6.4 μM, 16 h; vs cathelicidin peptide with 1% ethanol control; P<0.05
Description: as §1, §2

[4] = test system: cathelicidin-induced lesions; experiment: Mouse model of rosacea (subcutaneous cathelicidin peptide), topical treatment; type: in vivo, BALB/c and C57BL/6 mice; conditions: topical formulation containing 0.1% berberine twice a day for 2 days; 4th day; vs controls (n=3 each)
Description: The animal model of rosacea: the animal model of rosacea was adopted from previous reported^18. Briefly, BALB/c and C57BL/6 mice, shaved 24 h before treatments, were injected subcutaneously on the back with 40 μl of cathelicdin peptide (320 μM) twice a day. Forty-eight hours after the initial injection (four injections in total), erythema and edema were observed on the injected site mimicking the clinical features of rosacea.
In our experiments, cathelicidin-injected mice were treated with or without topical berberine twice a day to observe the effect of berberine on reducing inflammation. […] The cathelicidin-injected mice were then divided into 2 groups, which were treated with berberine (n=3) or not treated with berberine (n=3; as controls), respectively, for a subsequent 2 days. The topical formulation containing 0.1% berberine was applied on the cathelicidin-induced lesions twice a day. The erythematous or inflammatory lesions lasted for more than 7 days in the control group.

patients with rosacea = experiment: Open-label human clinical study on patients with rosacea; type: in vivo; conditions: for overall erythema severity (score 0 to 3): baseline 2.35±0.6; for overall erythema severity (score 0 to 3) / IGA score (7-point, 0 clear to 6 severe): P<0.0001 vs W0; for IGA score (7-point, 0 clear to 6 severe): baseline 4.1±1.3
Description: Method: an open-label clinical study was carried out to determine the efficacy of the topical berberine formulations of this invention for the treatment of rosacea and related skin disorders. Patients included in this study were diagnosed by dermatologists to have clinically defined rosacea. All patients were given 0.1% berberine gel twice a day for 6 weeks. At the time points of treatment initiation, and 2-weeks and 6-weeks after treatment, the patients were evaluated for their rosasea symptoms. The patients were not allowed to use other medications, including antibiotics, for their skin conditions. Only oral antihistamines were allowed for relief of pruritus symptoms. To evaluate the efficacy of treatment, the standard grading system for rosacea developed by the National Rosacea Society Expert Committee on the Classification and Staging of Rosacea was used^3. Additionally, the investigator's global assessment (IGA) and overall erythema severity of the patients were scored at week 0, week 2, and week 6 of berberine therapy. The IGA was expressed according to a 7-point scoring system with a range of 0 (clear) to 6 (severe). The severity of overall facial erythema and telangiectasia, respectively, was graded as ‘none’, ‘mild’, ‘moderate’, or ‘severe’ with scores from 0 to 3. The grading system used to assess overall facial erythema severity was described previously^38. Results: a total of 20 patients with rosacea (18 females and 2 males) were enrolled in this study. The mean age of the study population was 43.3 (19-85) years. The mean duration of rosacea prior to berberine treatment was 4 (1-24) years. Among the 20 patients with rosacea, 13 cases were of erythematotelangiectatic type (65%), 7 cases papulopustular type (35%), and […].

[5] = 0.1% berberine gel twice a day, end of treatment (6 weeks), 19 of the 20 patients

COc1ccc2cc3[n+](cc2c1OC)CCc1cc2c(cc1-3)OCO2 [berberine, 5,6-dihydro-9,10-dimethoxybenzo(g)-1,3-benzodioxolo (5,6-a) quinolizinium]
inhibition of cathelicidin induced inflammatory response (IL-8, IL-1 alpha, VEGF release) ([1]; 0-12.5 μg/ml, especially when concentration larger than 6.25 μg/ml): significant inhibit cathelicidin induced inflammatory response in a dose-dependent manner
decrease of the release of IL-8 ([1]; 1.25 μg/ml berberine, LL-37 6.4 μM, 16 h, vs cathelicidin peptide with 1% ethanol control, P<0.05): 31.4%
decrease of the release of IL-1 alpha [2]: 24.9%
decrease of the release of VEGF [3]: 29.1%
erythema and vascular dilatation [4]: significant reduced
cases with transient itchy/stinging sensation in the area of topical medication (patients with rosacea; 0.1% berberine gel twice a day for 6 weeks, 2 cases of 20, tolerable without discontinuation): 10%
serious adverse events (patients with rosacea; 0.1% berberine gel twice a day for 6 weeks, 20 patients): no serious adverse event
patients with a mild (1) to none (0) erythema rating (patients with rosacea; [5]): 95%
patients with a mild (2) to clear (0) IGA rating (patients with rosacea; [5]): 95%
overall erythema severity (score 0 to 3) (patients with rosacea; 0.1% berberine gel twice a day, week 2): 1.5±0.5
IGA score (7-point, 0 clear to 6 severe) (patients with rosacea; 0.1% berberine gel twice a day, week 2, 20 patients): 2.6±0.9
overall erythema severity (score 0 to 3) (patients with rosacea; 0.1% berberine gel twice a day, week 6): 0.95±0.4
IGA score (7-point, 0 clear to 6 severe) (patients with rosacea; 0.1% berberine gel twice a day, week 6, 20 patients): 1.6±0.8
